From ChEMBL document CHEMBL1201862, “PubChem BioAssay data set” (2004)
Values joined by “and” are separate entries in the source; they are usually repeats but may differ in a detail not shown here. Equal entries are not always repeated.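 Cultured in 96-well plates, cells were exposed to test compound for 48 hours across five concentrations. At the GI50, growth is halved.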 Active and inactive are the calls of the source. Cut-off read from the data, not from the text of the source: active = GI50 up to about 1.1 µM and inactive = higher.

Legend:
Assay in all cases: NCI anticancer screen, dose series, 48 h
[1] = test system: 786-0
[2] = test system: HCT-116
[3] = test system: HCT-15
[4] = test system: HT-29
[5] = test system: Hs-578T
[6] = test system: IGROV-1
[7] = test system: MCF7
[8] = test system: NCI-H226
[9] = test system: NCI-H23
[10] = test system: NCI-H522
[11] = test system: OVCAR-3
[12] = test system: SF-295
[13] = test system: SK-MEL-28
[14] = test system: SK-MEL-2
[15] = test system: SNB-75
[16] = test system: SW-620
[17] = test system: TK-10
[18] = test system: UACC-257
[19] = test system: SF-539
[20] = test system: HL-60

Row | Structure (SMILES) | GI50 [1] | GI50 [2] | GI50 [3] | GI50 [4] | GI50 [5] | GI50 [6] | GI50 [7] | GI50 [8] | GI50 [9] | GI50 [10] | GI50 [11] | GI50 [12] | GI50 [13] | GI50 [14] | GI50 [15] | GI50 [16] | GI50 [17] | GI50 [18] | GI50 [19] | GI50 [20]
1 | OCCN(CCO)c1ccc2c(-c3ccccc3)cc(N(CCO)CCO)nc2n1 | > 100 µM (inactive) | > 100 µM (inactive) | > 100 µM | > 100 µM (inactive) | > 100 µM (inactive) | > 100 µM (inactive) | > 100 µM (inactive) | > 100 µM (inactive) | > 100 µM (inactive) | > 100 µM (inactive) | > 100 µM (inactive) | > 100 µM (inactive) | > 100 µM (inactive) | > 100 µM (inactive) | > 100 µM (inactive) | > 100 µM (inactive) | > 100 µM (inactive) | > 100 µM (inactive) |  | 
2 | O=C(/C=C/c1ccccc1)c1ccccn1 | 12.3 µM (inactive) and 17.2 µM (inactive) |  | 11.8 µM and 18.5 µM | 20.7 µM (inactive) and 15.5 µM (inactive) | 22.6 µM (inactive) | 10.5 µM (inactive) and 17.4 µM (inactive) | 16 µM (inactive) | 16.6 µM (inactive) and 26.7 µM (inactive) | 17.9 µM (inactive) and 17.5 µM (inactive) | 17.8 µM (inactive) and 15.1 µM (inactive) | 12.7 µM (inactive) and 16.4 µM (inactive) | 24 µM (inactive) and 18.4 µM (inactive) | 17 µM (inactive) and 26.2 µM (inactive) | 19.2 µM (inactive) | 24.5 µM (inactive) and 16 µM (inactive) | 18.7 µM (inactive) and 29.8 µM (inactive) | 19 µM (inactive) and 15.2 µM (inactive) | 13.2 µM (inactive) and 16.4 µM (inactive) | 17.8 µM (inactive) | 
3 | CO[C@]12S[C@@H]3CCCC[C@@]31C(C)(C)C(=O)N2c1ccccc1 | 43.2 µM (inactive) | 33.2 µM (inactive) | 29.1 µM | 47.4 µM (inactive) | 75 µM (inactive) | 46.2 µM (inactive) | 27.4 µM (inactive) |  | 28.8 µM (inactive) | 27.6 µM (inactive) | 15.2 µM (inactive) | 16 µM (inactive) | 75.5 µM (inactive) | 26.8 µM (inactive) | 51.5 µM (inactive) | 30.4 µM (inactive) | 55.5 µM (inactive) | 33.8 µM (inactive) | 4.11 µM (inactive) | 14.6 µM (inactive)
4 | CSCCCNC(=O)c1csc(-c2csc(C(CNC(=O)OC(C)(C)C)CNC(=O)OC(C)(C)C)n2)n1 | 50.4 µM (inactive) | 31.4 µM (inactive) | 43.4 µM |  | 45.8 µM (inactive) | 33.3 µM (inactive) | 57.9 µM (inactive) | 42.5 µM (inactive) | 36 µM (inactive) | 18.6 µM (inactive) | 60 µM (inactive) | 38.6 µM (inactive) |  | 27.7 µM (inactive) | 35 µM (inactive) | 58.3 µM (inactive) | 66.1 µM (inactive) | 40.6 µM (inactive) | 45 µM (inactive) | 
5 | O=C1Nc2ccccc2/C1=N/NC(=S)Nc1ccc([N+](=O)[O-])cc1 | 4.81 µM (inactive) | 5.71 µM (inactive) | 2.33 µM | 18.4 µM (inactive) | 15.6 µM (inactive) | 10.7 µM (inactive) | 7.93 µM (inactive) |  | 13.8 µM (inactive) | 12.5 µM (inactive) | 13.4 µM (inactive) | 6.64 µM (inactive) | 14.2 µM (inactive) | 4.25 µM (inactive) | 13.9 µM (inactive) | 4.01 µM (inactive) | 10 µM (inactive) | 21.1 µM (inactive) | 13.8 µM (inactive) | > 100 µM (inactive)
6 | O=c1oc2c(Cl)cc(Cl)cc2cc1-c1cn2c(n1)sc1ccccc12 | 32.9 µM (inactive) | 27.9 µM (inactive) | 28.6 µM | 71.1 µM (inactive) | > 100 µM (inactive) | 44.1 µM (inactive) | 44.1 µM (inactive) |  | 95.5 µM (inactive) | 30.1 µM (inactive) | 31.4 µM (inactive) | 59.2 µM (inactive) | > 100 µM (inactive) | > 100 µM (inactive) | > 100 µM (inactive) | 31.9 µM (inactive) | > 100 µM (inactive) | > 100 µM (inactive) | > 100 µM (inactive) | 23.9 µM (inactive)
7 | COc1ccc(/C=C/C(=O)C(C)(C)Br)cc1 | 3.48 µM (inactive) | 2.19 µM (inactive) | 2.62 µM |  | 16.3 µM (inactive) | 1.71 µM (inactive) | 5.11 µM (inactive) |  | 2.25 µM (inactive) | 1.22 µM (inactive) | 17.5 µM (inactive) | 17.9 µM (inactive) |  | 12.2 µM (inactive) |  | 2.43 µM (inactive) | 14.6 µM (inactive) | 15.5 µM (inactive) | 17.1 µM (inactive) | 19.5 µM (inactive)
8 | Cc1ccc2c(=O)cc(Cc3csc4ccccc34)[nH]c2n1 | 46.2 µM (inactive) | 28.8 µM (inactive) | 12.1 µM | 35.1 µM (inactive) | 12.7 µM (inactive) | 11.7 µM (inactive) | 35.2 µM (inactive) | 18.1 µM (inactive) | 19.3 µM (inactive) | 13.6 µM (inactive) | 28.8 µM (inactive) | 26 µM (inactive) | 50.5 µM (inactive) | 79.3 µM (inactive) | 16.6 µM (inactive) | 40.7 µM (inactive) | 53.5 µM (inactive) | 38.6 µM (inactive) |  | 
9 | OC[C@@H](O)[C@H]1NC[C@@H](O)[C@H]1O | > 100 µM (inactive) | > 100 µM (inactive) | > 100 µM | > 100 µM (inactive) | > 100 µM (inactive) | > 100 µM (inactive) | > 100 µM (inactive) |  | > 100 µM (inactive) | > 100 µM (inactive) | > 100 µM (inactive) | > 100 µM (inactive) | > 100 µM (inactive) |  | > 100 µM (inactive) | > 100 µM (inactive) | > 100 µM (inactive) | > 100 µM (inactive) | > 100 µM (inactive) | > 100 µM (inactive)
10 | COc1ccc(-n2c(CCCC(=O)O)nc3c2C(=O)c2ccccc2C3=O)cc1 | > 100 µM (inactive) | 36.6 µM (inactive) | 44.5 µM |  | > 100 µM (inactive) | 79.3 µM (inactive) | 32.6 µM (inactive) |  | 44.1 µM (inactive) | 25.8 µM (inactive) | 33.3 µM (inactive) | 43 µM (inactive) | > 100 µM (inactive) | 84.7 µM (inactive) | 89.5 µM (inactive) | 56.9 µM (inactive) | > 100 µM (inactive) | 27.8 µM (inactive) | > 100 µM (inactive) | 31.1 µM (inactive)
11 | O=C(Cc1ccccc1)NN1C(=O)/C(=C\c2cccc(O)c2)S/C1=N\c1ccccc1 | > 100 µM (inactive) | > 100 µM (inactive) | > 100 µM | > 100 µM (inactive) | > 100 µM (inactive) | > 100 µM (inactive) | > 100 µM (inactive) | > 100 µM (inactive) | > 100 µM (inactive) |  | 83.4 µM (inactive) | > 100 µM (inactive) | > 100 µM (inactive) | > 100 µM (inactive) | > 100 µM (inactive) | > 100 µM (inactive) | > 100 µM (inactive) | > 100 µM (inactive) | > 100 µM (inactive) | 
12 | COC1CN(C)/C(=N\c2cccc3ccccc23)S1 (stereo not given) | > 10 µM (inactive) | > 10 µM (inactive) | > 10 µM | > 10 µM (inactive) | > 10 µM (inactive) | > 10 µM (inactive) | > 10 µM (inactive) |  | > 10 µM (inactive) | > 10 µM (inactive) |  | 2.75 µM (inactive) | > 10 µM (inactive) |  | > 10 µM (inactive) | > 10 µM (inactive) | > 10 µM (inactive) | > 10 µM (inactive) | > 10 µM (inactive) | > 10 µM (inactive)
13 | COc1cccc(NC(=O)C(C#N)=C(SC)SC)c1 | > 100 µM (inactive) | > 100 µM (inactive) | > 100 µM | > 100 µM (inactive) | > 100 µM (inactive) | > 100 µM (inactive) | 72.9 µM (inactive) | > 100 µM (inactive) |  | 30.4 µM (inactive) |  | > 100 µM (inactive) | > 100 µM (inactive) | > 100 µM (inactive) | > 100 µM (inactive) | > 100 µM (inactive) | > 100 µM (inactive) | > 100 µM (inactive) | > 100 µM (inactive) | 
14 | Cc1ccc(C(=O)CCC2C(=O)CC(C)(C)CC2=O)cc1 | > 100 µM (inactive) | > 100 µM (inactive) | > 100 µM | > 100 µM (inactive) | > 100 µM (inactive) | > 100 µM (inactive) | 53 µM (inactive) | > 100 µM (inactive) | > 100 µM (inactive) | 16.6 µM (inactive) | > 100 µM (inactive) | > 100 µM (inactive) | > 100 µM (inactive) | > 100 µM (inactive) | > 100 µM (inactive) | > 100 µM (inactive) | > 100 µM (inactive) | > 100 µM (inactive) | > 100 µM (inactive) | 
15 | O=P(O)(O)CN1CCNCCN(CP(=O)(O)O)CCNCC1 | > 30.8 µM (inactive) | 4.39 µM (inactive) | 4.2 µM | 3.95 µM (inactive) | > 100 µM (inactive) | 6.52 µM (inactive) | 6.97 µM (inactive) |  | 10.1 µM (inactive) | 9.38 µM (inactive) | > 100 µM (inactive) | > 100 µM (inactive) | > 100 µM (inactive) | > 100 µM (inactive) | > 51.6 µM (inactive) | 4.74 µM (inactive) | > 62.2 µM (inactive) | 41.8 µM (inactive) | 11.7 µM (inactive) | 2.79 µM (inactive)
